Data on 18 compounds can be found in ChEMBL document CHEMBL1145400, “Synthesis and biological evaluation of 4(5)-(6-alkylpyridin-2-yl)imidazoles as transforming growth factor-beta type 1 receptor kinase inhibitors” (J Med Chem, 2007).

In one experiment the target is T1, TGF-beta receptor type-1 (Homo sapiens, UniProt P36897).
T1 sequence (P36897 whole entry): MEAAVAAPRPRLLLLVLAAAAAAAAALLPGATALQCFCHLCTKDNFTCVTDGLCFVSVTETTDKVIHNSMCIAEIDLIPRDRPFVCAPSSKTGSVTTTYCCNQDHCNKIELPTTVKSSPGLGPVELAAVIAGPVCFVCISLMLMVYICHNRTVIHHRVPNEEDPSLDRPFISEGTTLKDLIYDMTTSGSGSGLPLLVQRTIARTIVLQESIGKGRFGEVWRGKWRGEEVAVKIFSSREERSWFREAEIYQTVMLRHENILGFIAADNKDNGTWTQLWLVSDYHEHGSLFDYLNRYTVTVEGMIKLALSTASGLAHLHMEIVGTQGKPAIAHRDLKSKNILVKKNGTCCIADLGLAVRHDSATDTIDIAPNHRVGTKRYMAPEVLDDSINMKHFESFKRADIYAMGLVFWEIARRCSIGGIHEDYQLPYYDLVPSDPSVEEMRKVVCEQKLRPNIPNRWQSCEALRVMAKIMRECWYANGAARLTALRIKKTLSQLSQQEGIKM
The experiment is described as follows: Inhibition of human recombinant ALK5 phosphorylation expressed in Sf9 cells.

The target of experiment [1] is T2, Serine/threonine-protein kinase D1 (Homo sapiens, UniProt Q15139).
T2 sequence (Q15139 whole entry): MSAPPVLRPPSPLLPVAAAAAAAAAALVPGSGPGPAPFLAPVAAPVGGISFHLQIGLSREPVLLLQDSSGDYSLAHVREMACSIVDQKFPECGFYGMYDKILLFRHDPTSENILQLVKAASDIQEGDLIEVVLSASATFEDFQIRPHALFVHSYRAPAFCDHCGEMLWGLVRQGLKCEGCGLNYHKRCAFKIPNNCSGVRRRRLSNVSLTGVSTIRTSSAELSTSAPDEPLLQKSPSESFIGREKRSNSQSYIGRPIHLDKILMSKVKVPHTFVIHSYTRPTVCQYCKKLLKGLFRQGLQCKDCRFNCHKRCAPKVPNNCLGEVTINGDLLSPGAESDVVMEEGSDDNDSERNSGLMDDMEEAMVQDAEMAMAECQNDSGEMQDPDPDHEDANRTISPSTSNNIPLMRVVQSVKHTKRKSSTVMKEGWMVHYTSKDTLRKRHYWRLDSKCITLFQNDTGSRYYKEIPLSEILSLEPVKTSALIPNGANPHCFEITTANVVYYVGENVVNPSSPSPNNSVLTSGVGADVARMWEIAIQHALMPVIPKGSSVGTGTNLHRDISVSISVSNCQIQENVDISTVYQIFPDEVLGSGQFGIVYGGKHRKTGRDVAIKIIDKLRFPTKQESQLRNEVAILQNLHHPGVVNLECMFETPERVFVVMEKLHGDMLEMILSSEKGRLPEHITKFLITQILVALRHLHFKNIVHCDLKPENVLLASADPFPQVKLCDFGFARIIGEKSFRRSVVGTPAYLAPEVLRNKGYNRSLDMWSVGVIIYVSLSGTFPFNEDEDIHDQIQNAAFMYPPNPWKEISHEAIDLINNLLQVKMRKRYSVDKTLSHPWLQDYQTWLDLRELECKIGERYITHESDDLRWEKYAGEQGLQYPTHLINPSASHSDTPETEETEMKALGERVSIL
Briefly: Inhibition of PKCmu.

Experiment [2] concerns the target Mitogen-activated protein kinase 14 (Homo sapiens, UniProt Q16539).

Mitogen-activated protein kinase 14, sequence (Q16539 whole entry): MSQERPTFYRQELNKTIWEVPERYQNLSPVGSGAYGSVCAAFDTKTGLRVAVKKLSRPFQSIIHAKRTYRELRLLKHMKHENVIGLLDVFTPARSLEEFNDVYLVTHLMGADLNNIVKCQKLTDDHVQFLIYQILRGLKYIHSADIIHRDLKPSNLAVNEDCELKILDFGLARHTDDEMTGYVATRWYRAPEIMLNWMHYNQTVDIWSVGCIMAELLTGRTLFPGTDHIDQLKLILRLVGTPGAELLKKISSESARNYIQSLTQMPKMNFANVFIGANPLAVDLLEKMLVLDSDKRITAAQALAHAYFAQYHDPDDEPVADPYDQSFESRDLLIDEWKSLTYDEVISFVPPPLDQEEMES

The IC50 is the concentration needed to halve the response being measured. On to `CCc1cccc(-c2[nH]c(CNc3ccc(C(N)=O)cc3)nc2-c2ccc3c(c2)OCO3)n1`, for which, at TGF-beta receptor type-1, the IC50 was determined as 385 nM.

As to `CCc1cccc(-c2[nH]c(CNc3ccc(C#N)cc3)nc2-c2ccc3nccnc3c2)n1`, at TGF-beta receptor type-1, the IC50 came out at 47 nM.

`Cc1cccc(-c2[nH]c(CNc3ccc(C#N)cc3)nc2-c2ccc3nccnc3c2)n1`: the half-maximal inhibitory concentration (IC50) at TGF-beta receptor type-1 amounted to 42 nM.

For the compound `CCc1cccc(-c2[nH]c(CNc3ccc(C#N)cc3)nc2-c2ccc3c(c2)OCO3)n1`, the IC50 on TGF-beta receptor type-1 is 360 nM.

As for `Cc1cccc(-c2[nH]c(CNc3cccc(C#N)c3)nc2-c2ccc3nccnc3c2)n1`, the half-inhibitory concentration (IC50) on TGF-beta receptor type-1 stood at 12 nM; in experiment [1] it was 1000 nM; in experiment [2], 1030 nM.

On to `Cc1cccc(-c2[nH]c(CNc3cccc(C(N)=O)c3)nc2-c2ccc3c(c2)OCO3)n1`, for which the IC50 at TGF-beta receptor type-1 worked out at 21 nM.

Consider `Cc1cccc(-c2[nH]c(CNc3cccc(C#N)c3)nc2-c2ccc3c(c2)OCO3)n1`, for which, at TGF-beta receptor type-1, the IC50 is 46 nM.

Consider `Cc1cccc(-c2[nH]c(NCc3cccc(C#N)c3)nc2-c2ccc3c(c2)OCO3)n1`, for which, at TGF-beta receptor type-1, the IC50 turned out to be 24 nM.

Consider `Cc1cccc(-c2[nH]c(NCc3ccc(C#N)cc3)nc2-c2ccc3c(c2)OCO3)n1`, for which the IC50 on TGF-beta receptor type-1 stood at 153 nM.

For the compound `Cc1cccc(-c2[nH]c(CNc3ccc(C(N)=O)cc3)nc2-c2ccc3c(c2)OCO3)n1`, the IC50 on TGF-beta receptor type-1 was 262 nM.

As for `Cc1cccc(-c2nc(CNc3ccc(C(N)=O)cc3)[nH]c2-c2ccc3nccnc3c2)n1`, the IC50 at TGF-beta receptor type-1 was 75 nM.

In the case of `CCc1cccc(-c2[nH]c(CNc3cccc(C(N)=O)c3)nc2-c2ccc3nccnc3c2)n1`, the IC50 on TGF-beta receptor type-1 came to 15 nM.

For the compound `CCc1cccc(-c2nc(CNc3cccc(C#N)c3)[nH]c2-c2ccc3c(c2)OCO3)n1`, the IC50 on TGF-beta receptor type-1 was 73 nM.

Regarding `CCc1cccc(-c2[nH]c(CNc3cccc(C#N)c3)nc2-c2ccc3nccnc3c2)n1`, the half-inhibitory concentration (IC50) at TGF-beta receptor type-1 was 119 nM.

For the compound `Cc1cccc(-c2[nH]c(CNc3ccc(C#N)cc3)nc2-c2ccc3c(c2)OCO3)n1`, the IC50 at TGF-beta receptor type-1 worked out at 174 nM.

As to `CCc1cccc(-c2nc(CNc3cccc(C(N)=O)c3)[nH]c2-c2ccc3c(c2)OCO3)n1`, on TGF-beta receptor type-1, the IC50 was 46 nM.

As for `CCc1cccc(-c2nc(CNc3ccc(C(N)=O)cc3)[nH]c2-c2ccc3nccnc3c2)n1`, the concentration for half-maximal inhibition (IC50) on TGF-beta receptor type-1 is 92 nM.

In the case of `Cc1cccc(-c2nc(CNc3cccc(C(N)=O)c3)[nH]c2-c2ccc3nccnc3c2)n1`, the IC50 at TGF-beta receptor type-1 was 10 nM.
